Read-outs that look alike come from different tables or passages of the source.
Legend:
[1] = biological target: recombinant RORγ Ligand Binding Domain (LBD) protein (Homo sapiens (Human), UniProt P51449); test: Radio-Ligand RORγ Binding Assay (Assay 1); settings: competition with 25-hydroxy [26,27-3H]-cholesterol, SPA, read-out: RORγ Binding Ki Range*
Method in brief: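 Recombinant human RORγ ligand binding domain (6×His-GST fusion, 24 nM stock) competed with tritiated 25-hydroxycholesterol (8.6 nM stock) in HEPES buffer pH 7.4 with detergents and DTT; poly-Lys YSi SPA beads, room temperature, tritium SPA signal. Four-parameter IC50 from semi-log dilutions, normalised to DMSO and 10 μM T0901317, then Ki via KD equation.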

[2] = biological target: full-length RORγt in Jurkat cells (Homo sapiens (Human), UniProt P51449); test: RORγt 5xRORE Assay in Jurkat Cells (Assay 2); assay type: cell-based; settings: Nanoluc luciferase reporter, 16-18 hrs
full-length RORγt in Jurkat cells, sequence (P51449 other isoform, or with tags, fused parts or gaps): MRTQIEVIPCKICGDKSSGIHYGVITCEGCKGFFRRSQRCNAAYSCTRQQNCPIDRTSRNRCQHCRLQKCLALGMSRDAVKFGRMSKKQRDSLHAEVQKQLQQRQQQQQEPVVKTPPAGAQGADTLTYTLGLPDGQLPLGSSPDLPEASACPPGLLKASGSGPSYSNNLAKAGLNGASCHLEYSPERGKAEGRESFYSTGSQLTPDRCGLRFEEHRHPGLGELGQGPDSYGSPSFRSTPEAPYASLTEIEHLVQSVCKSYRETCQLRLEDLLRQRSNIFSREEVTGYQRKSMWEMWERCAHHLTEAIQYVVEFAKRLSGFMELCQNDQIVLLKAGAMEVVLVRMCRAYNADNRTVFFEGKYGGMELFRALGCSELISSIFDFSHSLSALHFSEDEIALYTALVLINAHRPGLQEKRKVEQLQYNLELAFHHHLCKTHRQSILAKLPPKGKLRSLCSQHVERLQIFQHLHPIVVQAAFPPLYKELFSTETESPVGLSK
Method in brief: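 Inverse agonist activity was read as NanoGlo luminescence from conditioned medium after 16–18 h compound exposure (37 °C, 0.1% DMSO final). The cells were Jurkat, transiently transfected with RORγt and a secNluc reporter carrying five RORE repeats, seeded 80,000 per well in delipidated-serum RPMI.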

[3] = Table 9, read-out: RORγt5X IC50 Range*
[4] = Table 8, read-out: RORγt5X IC50 Range*

recombinant RORγ Ligand Binding Domain (LBD) protein, sequence (P51449 269-508): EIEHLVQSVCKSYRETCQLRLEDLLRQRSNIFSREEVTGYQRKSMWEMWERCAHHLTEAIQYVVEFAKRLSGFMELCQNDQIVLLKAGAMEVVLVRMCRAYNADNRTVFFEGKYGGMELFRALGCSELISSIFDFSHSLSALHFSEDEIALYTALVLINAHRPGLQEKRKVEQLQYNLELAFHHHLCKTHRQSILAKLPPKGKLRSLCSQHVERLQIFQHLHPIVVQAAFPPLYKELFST

Ki ([1]; Table 9) [nM] | IC50 [2, 3] [nM] | Ki ([1]; Table 8) [nM] | IC50 [2, 4] [nM] | Compound
< 100 | 100 to 1000 |  |  | CC[C@H]1c2nc(NC(=O)Cc3ccc(S(C)(=O)=O)cc3)sc2CN1Cc1ccc2nn[nH]c2c1
 |  | < 100 | < 100 | CCS(=O)(=O)c1ccc(CC(=O)Nc2nc3c(s2)CN(Cc2ccc(C#N)c(C)n2)[C@H]3C(C)C)cc1 [I-A50]
 |  | < 100 | < 100 | CCS(=O)(=O)c1ccc(CC(=O)Nc2nc3c(s2)CN(C[C@H]2CC[C@H](C(=O)OC)CC2)[C@H]3C(C)C)cc1 [I-A44]
 |  | < 100 | < 100 | COC(=O)c1ccc(CN2Cc3sc(C(=O)NCc4ccc(S(C)(=O)=O)cc4)nc3[C@@H]2C(C)C)cc1 [I-K3]
< 100 | 100 to 1000 |  |  | CC[C@@]1(C)c2nc(NC(=O)Cc3ccc(S(=O)(=O)CC)cc3)sc2CN1Cc1ccc(C#N)cc1
< 100 | > 1000 |  |  | CCS(=O)(=O)c1ccc(CC(=O)Nc2nc3c(s2)CN(c2nc(C)cc(C(F)(F)F)n2)[C@H]3C(C)C)cc1
< 100 | > 1000 |  |  | CC(C)[C@@H]1c2nc(NC(=O)Cc3ccc(S(C)(=O)=O)cc3)sc2CN1Cc1cccc(F)c1
100 to 1000 | 100 to 1000 |  |  | CCS(=O)(=O)c1ccc(CNC(=O)c2nc3c(s2)CN(C[C@H]2CC[C@H](C(F)(F)F)CC2)[C@H]3C(C)C)nc1
< 100 | < 100 |  |  | CCS(=O)(=O)c1ccc(CC(=O)Nc2nc3c(s2)CN([C@@H](C)c2c(F)cc(Cl)cc2F)[C@H]3C(C)C)cc1 (single isomer, unassigned)
< 100 | 100 to 1000 |  |  | CCS(=O)(=O)c1cnc(CC(=O)Nc2nc3c(s2)CN(Cc2ccc(Cl)cc2)[C@H]3C(C)C)nc1
< 100 | 100 to 1000 |  |  | CCS(=O)(=O)c1ccc(CC(=O)Nc2nc3c(s2)CN(C[C@H]2CC[C@@H](C(F)(F)F)OC2)[C@H]3C(C)C)nc1 (single isomer, unassigned)
< 100 | > 1000 |  |  | CCS(=O)(=O)c1ccc(CC(=O)Nc2nc3c(s2)CN(C[C@H]2CC[C@@H](C(F)(F)F)CC2)C3C(C)C)cc1 (stereo partly shown)
100 to 1000 | > 1000 |  |  | Cc1cc(C(F)(F)F)nc(N2Cc3sc(NC(=O)Cc4ccc(S(C)(=O)=O)cc4)nc3[C@H]2C(C)C)n1
< 100 | > 1000 |  |  | CCS(=O)(=O)c1ccc(CC(=O)Nc2nc3c(s2)CN(C[C@@H]2CC[C@H](C(F)(F)F)O2)[C@H]3C(C)C)nc1 (single isomer, unassigned)
< 100 | > 1000 |  |  | CCS(=O)(=O)c1ccc(CC(=O)Nc2nc3c(s2)CN(C[C@H]2CC[C@@H](C(F)(F)F)O2)[C@H]3C(C)C)nc1 (single isomer, unassigned)
< 100 | 100 to 1000 |  |  | CCS(=O)(=O)c1ccc(CC(=O)Nc2nc3c(s2)CN([C@@H](C)Cc2ccc(Cl)cc2)[C@H]3C(C)C)cc1
 |  | < 100 | < 100 | CCS(=O)(=O)c1ccc(CC(=O)Nc2nc3c(s2)CN([C@H](C)c2ncc(Cl)cc2F)[C@H]3C(C)C)cc1 [I-A53]
 |  | < 100 | < 100 | CC(C)[C@H]1c2nc(NC(=O)Cc3ccc(S(C)(=O)=O)cc3)sc2CN1[C@@H](C)c1ccc(C#N)cc1Cl [I-B10]
 |  | < 100 | < 100 | CCS(=O)(=O)c1ccc(CC(=O)Nc2nc3c(s2)CN(Cc2ccc(C#N)cc2F)[C@H]3C(C)C)cc1 [I-A13]

Ki ([1]; Table 9) [nM] | IC50 [2, 3] [nM] | Ki ([1]; Table 8) [nM] | IC50 [2, 4] [nM] | Compound
100 to 1000 | 100 to 1000 |  |  | CC(C)[C@H]1c2nc(NC(=O)Cc3ccc(S(C)(=O)=O)cc3)sc2CN1Cc1ccc(C(F)(F)F)nn1
 |  | < 100 | < 100 | CCS(=O)(=O)c1ccc(CC(=O)Nc2nc3c(s2)CN(Cc2ccc(C(F)(F)F)nc2)[C@H]3C(C)C)cc1 [I-A62]
< 100 | > 1000 |  |  | CC[C@@H]1c2nc(NC(=O)Cc3ccc(S(=O)(=O)CC)cc3)sc2CN1Cc1ccc2c(c1)OCO2
< 100 | 100 to 1000 |  |  | CCS(=O)(=O)c1cnc(CC(=O)Nc2nc3c(s2)CN(Cc2ccc(C#N)cc2)[C@H]3C(C)C)nc1
 |  | < 100 | < 100 | CCS(=O)(=O)c1ccc(CC(=O)Nc2nc3c(s2)CN([C@@H](C)c2ccc(Cl)cc2F)[C@H]3C(C)C)cc1 [I-A39]
 |  | < 100 | < 100 | CCS(=O)(=O)c1ccc(CC(=O)Nc2nc3c(s2)CN(Cc2ccc(C#N)cc2)[C@H]3C(C)C)nc1 [I-C11]
 |  | < 100 | < 100 | CC(C)[C@H]1c2nc(C(=O)NCc3ccc(S(C)(=O)=O)cc3)sc2CN1Cc1ccc(OC(F)F)cc1 [I-K2]
100 to 1000 | 100 to 1000 |  |  | CCS(=O)(=O)c1ccc(CNC(=O)c2nc3c(s2)CN(Cc2cnc(C(F)(F)F)nc2)[C@H]3C(C)C)cc1
< 100 | > 1000 |  |  | CCS(=O)(=O)c1ccc(CC(=O)Nc2nc3c(s2)CN(Cc2cccc(Br)c2)[C@@H]3C(C)C)cc1
< 100 | < 100 |  |  | CCS(=O)(=O)c1ccc(CC(=O)Nc2nc3c(s2)CN(C[C@H]2CC[C@H](O)CC2)[C@H]3C(C)C)cc1
 |  | < 100 | < 100 | CCS(=O)(=O)c1ccc(CC(=O)Nc2nc3c(s2)CN(C[C@H]2CC[C@H](C(F)(F)F)OC2)[C@H]3C(C)C)cc1 [I-A27]
< 100 | > 1000 |  |  | CCOC(=O)c1cnc(N2Cc3sc(NC(=O)Cc4ccc(S(=O)(=O)CC)cc4)nc3[C@@H]2C(C)C)nc1C(F)(F)F
 |  | < 100 | < 100 | CCS(=O)(=O)c1ccc(CC(=O)Nc2nc3c(s2)CN([C@H](C)c2ccc(C(F)(F)F)cc2F)[C@H]3C(C)C)cc1 [I-A36]
< 100 | > 1000 |  |  | CCS(=O)(=O)c1ccc(CC(=O)Nc2nc3c(s2)CN(Cc2ccc(C)nn2)[C@H]3C(C)C)cc1
< 100 | > 1000 |  |  | CCS(=O)(=O)c1ccc(CC(=O)Nc2nc3c(s2)CN(c2ncc(Cl)c(C)n2)[C@H]3C(C)C)cc1
< 100 | 100 to 1000 |  |  | CC(C)[C@H]1c2nc(C(=O)NCc3ccc(S(C)(=O)=O)cc3)sc2CN1Cc1ccc(C#N)cc1
< 100 | < 100 |  |  | CCS(=O)(=O)c1ccc(CC(=O)Nc2nc3c(s2)CN(C[C@H]2CC[C@](O)(C(F)(F)F)CC2)[C@H]3C(C)C)cc1 (single isomer, unassigned)
 |  | < 100 | < 100 | CCS(=O)(=O)c1ccc(CNC(=O)c2nc3c(s2)CN(C[C@@H]2CN(C(=O)OC(C)(C)C)CCO2)[C@H]3C(C)C)cc1 [I-J5]
< 100 | 100 to 1000 |  |  | CC(C)[C@H]1c2nc(NC(=O)Cc3ccc(C(C)(C)C#N)cc3)sc2CN1Cc1ccc(Cl)cc1

Ki ([1]; Table 9) [nM] | IC50 [2, 3] [nM] | Ki ([1]; Table 8) [nM] | IC50 [2, 4] [nM] | Compound
< 100 | > 1000 |  |  | CCS(=O)(=O)c1ccc(CC(=O)Nc2nc3c(s2)CN(C[C@@H]2CC[C@H](C(F)(F)F)N(C4CC4)C2)[C@H]3C(C)C)cc1 (single isomer, unassigned)
100 to 1000 | > 1000 |  |  | CC1(C)c2nc(NC(=O)Cc3ccc(S(C)(=O)=O)cc3)sc2CN1Cc1ccc(Cl)cc1
< 100 | > 1000 |  |  | CCS(=O)(=O)c1ccc(CC(=O)Nc2nc3c(s2)CN(Cc2cccc(C(F)(F)F)c2)[C@@H]3C(C)C)cc1
< 100 | > 1000 |  |  | CCS(=O)(=O)c1ccc(CC(=O)Nc2nc3c(s2)CN(c2nc(C)cc(C(F)(F)F)n2)[C@@H]3C(C)C)cc1
< 100 | 100 to 1000 |  |  | CC[C@H]1c2nc(NC(=O)Cc3ccc(F)cc3)sc2CN1Cc1ccc(Cl)cc1
< 100 | < 100 |  |  | CCS(=O)(=O)c1ccc(CC(=O)Nc2nc3c(s2)CN(Cc2ccc(C(F)(F)F)nn2)[C@H]3C(C)C)cc1
 |  | < 100 | < 100 | CC(C)[C@H]1c2nc(NC(=O)Cc3ccc(S(C)(=O)=O)cc3)sc2CN1Cc1ccc(C#N)cc1Cl [I-B16]
< 100 | 100 to 1000 |  |  | CCS(=O)(=O)c1ccc(CC(=O)Nc2nc3c(s2)CN(Cc2ccc(=O)n(C)c2)[C@H]3C(C)C)cc1
< 100 | > 1000 |  |  | CCS(=O)(=O)c1ccc(CC(=O)Nc2nc3c(s2)CN(Cc2cccc(F)c2)[C@@H]3C(C)C)cc1
< 100 | > 1000 |  |  | CC(C)[C@H]1c2nc(NC(=O)Cc3ccc(S(C)(=O)=O)cc3)sc2CN1Cc1ccc(F)cc1
< 100 | > 1000 |  |  | CCS(=O)(=O)c1ccc(CC(=O)Nc2nc3c(s2)CN(c2nccc(C4CC4)n2)[C@@H]3C(C)C)cc1
< 100 | 100 to 1000 |  |  | CCS(=O)(=O)c1ccc(CC(=O)Nc2nc3c(s2)CN(Cc2ccc(CO)cc2)[C@H]3C(C)C)cc1
 |  | < 100 | < 100 | CCS(=O)(=O)c1ccc(CC(=O)Nc2nc3c(s2)CN(C[C@H]2CC[C@@](C)(OC)CC2)[C@H]3C(C)C)nc1 [I-C6]
 |  | < 100 | < 100 | CC(C)[C@H]1c2nc(NC(=O)Cc3ccc(S(C)(=O)=O)cc3)sc2CN1Cc1ccc(-c2nnn(C)n2)cc1 [I-B9]
< 100 | 100 to 1000 |  |  | CCS(=O)(=O)c1ccc(CNC(=O)c2nc3c(s2)CN(Cc2ccc4nonc4c2)[C@H]3C(C)C)nc1
< 100 | < 100 |  |  | CCS(=O)(=O)c1ccc(CC(=O)Nc2nc3c(s2)C(C)N(Cc2ccc(Cl)cc2)[C@H]3C(C)C)cc1 (stereo partly shown)
< 100 | 100 to 1000 |  |  | CCS(=O)(=O)c1ccc(CC(=O)Nc2nc3c(s2)CN(Cc2ccc(C(F)(F)F)c(Cl)c2)[C@@H]3C(C)C)cc1
 |  | < 100 | < 100 | CCS(=O)(=O)c1ccc(CC(=O)Nc2nc3c(s2)CN([C@H](C)c2ccc(C(F)(F)F)cc2)[C@H]3C(C)C)cc1 [I-A34]
